Source: paper PMC3707514 (Chemical research in toxicology, 2013)

Assays:
P450 2S1 [1] = target: T1, P450 2S1 (Homo sapiens, UniProt Q96SQ9); format: biochemical
T1 sequence (Q96SQ9 1-504): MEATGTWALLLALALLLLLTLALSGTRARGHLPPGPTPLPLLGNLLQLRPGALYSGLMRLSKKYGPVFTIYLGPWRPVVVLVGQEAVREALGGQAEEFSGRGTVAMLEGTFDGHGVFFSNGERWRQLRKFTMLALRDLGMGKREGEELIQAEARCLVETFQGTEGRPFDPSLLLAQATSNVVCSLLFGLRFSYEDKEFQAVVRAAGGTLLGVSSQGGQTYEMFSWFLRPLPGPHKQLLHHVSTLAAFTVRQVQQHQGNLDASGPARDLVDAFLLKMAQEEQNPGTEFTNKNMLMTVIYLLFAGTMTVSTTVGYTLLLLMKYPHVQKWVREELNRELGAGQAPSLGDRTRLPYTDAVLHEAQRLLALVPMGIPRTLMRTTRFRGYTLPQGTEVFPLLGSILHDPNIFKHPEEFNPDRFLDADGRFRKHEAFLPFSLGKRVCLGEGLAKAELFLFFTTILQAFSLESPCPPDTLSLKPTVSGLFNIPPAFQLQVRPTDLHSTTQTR

P450 2S1 [2] = target: T1, P450 2S1; format: biochemical; remark: listed apart in the source
P450 2S1 [3] = target: T1, P450 2S1; format: biochemical; remark: listed apart in the source
P450 2S1 [4] = target: T1, P450 2S1; test: UV-visible difference spectral titration of purified P450 2S1; format: binding

ONc1ccc2c(c1)Cc1ccccc1-2 [2-HONH-fluorene]
anaerobic reduction to 2-aminofluorene by purified P450 2S1, HPLC, minus-P450 co (P450 2S1 [1]): 0.34 ± 0.12 min⁻¹

ONc1ccc2ccccc2c1 [2-HONH-naphthalene]
anaerobic reduction to 2-naphthylamine by purified P450 2S1, HPLC, minus-P450 co (P450 2S1 [2]): 2.4 ± 0.8 min⁻¹

ONc1ccc(-c2ccccc2)cc1 [4-HONH-biphenyl]
anaerobic reduction to 4-aminobiphenyl by purified P450 2S1, HPLC, minus-P450 co (P450 2S1 [3]): 0.18 ± 0.01 min⁻¹

Cc1cc(-c2nc3cc(F)ccc3s2)ccc1NO [HONH-5F 203, 2-(4-hydroxylamino-3-methylphenyl)-5-fluorobenzothiazole]
Kd (P450 2S1 [4]): 30 ± 10 µM
